Assay results: patent US8524302B2, “Natural flavour enhancers and methods for making same” (Pepsico, priority 2009, dated 2013)
“Also recorded” adds a separate entry of the source.

Key:
Assay type in all cases: in vivo
sensory panel [1] = test: Sensory (triangle) tests: kokumi intensity in chicken broth; details: for Kokumi intensity (0-5): pH 6.5, scale 0-5 (blank = 2)
Procedure: (§1) Unless otherwise indicated, all sensory tests for the samples are determined using triangle tests (Wieser and Belitz, Z. Lebensm. Unters. Forsch., 1975, 159, 65-72) in three different sessions. The sensory panel is trained to evaluate aqueous solutions (2 mL each) of the following reference taste compounds dissolved in bottled water with a pH of 6.0: sucrose (25 mmol/L) for sweet taste; lactic acid (20 mmol/L) for sour taste; NaCl (30 mmol/L) for salty taste; caffeine (1 mmol/L) for bitter taste; and MSG (3 mmol/L) for umami taste, tannic acid (0.05%) for puckering astringency, and quercetin-O-β-D-glucopyranoside (0.01 mmol/L) for a velvety astringent, mouth-drying oral sensation. For the training of viscosity, a gelatin solution (0.5% in water) was used. […] Sensory analyses were performed in a sensory panel room at 19-22° C. in three different sessions using nose clamps.
(§2) For recording the taste profiles, samples are prepared as indicated in the examples below. Flavor profiles of samples are determined in a triangle test in three different sessions. Panelists refrain from eating or drinking for at least 1 hour prior to the session. At the start of the session and before each trial, the subjects rinsed with water and expectorated. The participants receive a set of two blanks and one taste sample. Liquids are swirled around in the mouth briefly and expectorated. […] Each sample with additive is compared to two reference samples without additives. Kokumi intensity is rated according to a scale from 0 to 5 (with 5 being the most intensive). Punch refers to an initial kokumi sensation experienced in the mouth within 0-3 seconds from the time when a food or liquid is put in the mouth, while long-lasting refers to kokumi felt after 10-60 seconds therefrom.
Sensory (triangle) tests are performed by dilution of 3 grams of chicken broth concentrate (Gourmet Bouillon Huhn; Maggi, Singen, Germany) with 100 mL water (Evian®). Additives are added as specified in table below. The pH-value of all samples is adjusted to 6.5 using formic acid (0.1 mol/L) or sodium hydroxide (0.1 mol/L). […] For each sample, kokumi intensity is rated and panelists were asked to describe sensory characteristics.

sensory panel [2] = test: Sensory (triangle) tests of the compounds in water; details: for Sensory descriptors: pH 6.5; for Intensity (0-5): pH 6.5, aroma and taste intensity, scale 0-5; for kokumi sensation (in words): without inducing or glutamate-containing composition
Procedure: as §1, §2
Sensory (triangle) tests are performed by dissolving the listed compounds in water (Evian®). Additives are added as specified in table below. The pH-value of all samples is adjusted to 6.5 using formic acid (0.1 mol/L) or sodium hydroxide (0.1 mol/L). For each sample, aroma and taste intensity is rated and panelists are asked to describe sensory characteristics.

sensory panel [3] = test: Sensory tests (organoleptic evaluation) of compounds added to inducing compositions; details: for kokumi sensation (in words): after undergoing an Amadori reaction; for kokumi sensation / flavour enhancing sensation (in words): added to various inducing compositions or foods
Excerpt: Sensory tests subjecting the flavour enhancing compounds to organoleptic evaluation indicate that the isolated flavouring compounds are substantially tasteless in the form of an aqueous solution, but are useful for imparting the enhanced effects when added even in small amounts to certain inducing compositions or food products containing a glutamate and/or nucleic acid as further described below. […] The thresholds given herein are meant to reflect minimum amounts for use in chicken broth as a matrix; however, one skilled in the art, armed with this disclosure, will recognize that this amount can be adjusted, either higher or lower, dependent upon the matrix used and the desired intensity of the kokumi effect. In general, a certain amount of salt is also necessary to achieve the kokumi effect; typically, about 12 mmol/L, which is found naturally in nearly all food products. The compounds can be applied to different kinds of foods including without limitation snacks, soups, cereals, sauces, fish, and fish paste. Unless otherwise indicated, all sensory tests for the samples are determined using triangle tests ([…] and Belitz, Z. Lebensm. Unters. Forsch., 1975, 159, 65-72) in three different sessions. The sensory panel is trained to evaluate aqueous solutions (2 mL each) of the following reference taste compounds dissolved in bottled water with a pH of 6.0: sucrose (25 mmol/L) for sweet taste; lactic acid (20 mmol/L) for sour taste; NaCl (30 mmol/L) for salty taste; caffeine (1 mmol/L) for bitter taste; and MSG (3 mmol/L) for umami taste, tannic acid (0.05%) for puckering astringency, and quercetin-O-β-D-glucopyranoside (0.01 mmol/L) for a velvety astringent, mouth-drying oral sensation. For the training of viscosity, a gelatin solution (0.5% in water) was used. […] Sensory analyses were performed in a sensory panel room at 19-22° C. in three different sessions using nose clamps. For recording the taste profiles, samples are prepared as indicated in the examples below. Flavor profiles of samples are determined in a triangle test in three different sessions. Panelists refrain from eating or drinking for at least 1 hour prior to the session. At the start of the session and before each trial, the subjects rinsed with water and expectorated. The participants receive a set of two blanks and one taste sample. Liquids are swirled around in the mouth briefly and expectorated. […] Each sample with additive is compared to two reference samples without additives.

| Compound | Kokumi intensity (0-5) (sensory panel [1]; additive 10 mmol/L) | Sensory descriptors (sensory panel [2]; additive 10 mmol/L) | Intensity (0-5) (sensory panel [2]; additive 10 mmol/L) | kokumi sensation (in words) (sensory panel [3]) | kokumi effect (in words) (sensory panel [1]; Table 10) | Kokumi intensity (0-5) (sensory panel [1]; additive 5 mmol/L) | Sensory descriptors (sensory panel [2]; additive 5 mmol/L) | Intensity (0-5) (sensory panel [2]; additive 5 mmol/L) | kokumi sensation (in words) (sensory panel [2]) | kokumi sensation / flavour enhancing sensation (in words) (sensory panel [3]; listed as formula (I)) | kokumi sensation / flavour enhancing sensation (in words) (sensory panel [3]) |
| --- | --- | --- | --- | --- | --- | --- | --- | --- | --- | --- | --- |
| C/C=C/SC[C@H](NC(=O)CC[C@H](N)C(=O)O)C(=O)O [γ-L-glutamyl-(E)-S-1-propenyl-L-cysteine] | 3.3 | onion aroma | 0.5 | good kokumi sensation | – | – | – | – | – | – | – |
| CC=CSCC(NC(=O)CCC(N)C(=O)O)C(=O)NC(C[S+]([O-])C=CC)C(=O)O (racemic) [γ-L-glu-(E)-S-(propen-1-yl)-L-cys-(E)-S-(propen-1-yl)-L-cys-(+/−)-SO] | – | – | – | – | surprisingly potent kokumi effect | 4.5 | flavourless | 0 | no kokumi sensation | strong kokumi sensation; also recorded: surprisingly highly potent kokumi effect; also recorded: strong flavour enhancing sensation | – |
| C=CCSC[C@H](N)C(=O)O [S-allyl-L-cysteine] | 3.3 | – | 1 | good kokumi sensation | – | – | – | – | – | – | – |
| C/C=C/SC[C@H](NC(=O)CC[C@H](NC(=O)[C@H](CS/C=C/C)NC(=O)CC[C@H](N)C(=O)O)C(=O)O)C(=O)O [γ-L-glutamyl-(E)-S-1-propenyl-L-cysteinyl-γ-L-glutamyl-(E)-S-1-propenyl-L-cysteine] | 3.3 | flavourless | 0 | – | – | – | – | – | no kokumi sensation | – | strong flavour enhancing sensation |
